For this test, the target named is KRAS G12C and cRAF (Ras-binding domain) interaction (Homo sapiens (Human), UniProt P01116, C118S/C51S/C80L/G12C). Put plainly: Inhibition of KRAS G12C and cRAF binding (AlphaScreen). The essentials:
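Compounds (DMSO) preincubated 19-20 h at room temperature, then RBD with streptavidin donor and glutathione acceptor beads added in 25 mM Hepes pH 7.4, 150 mM NaCl, 5 mM MgCl2, 0.01% Triton X-100, 2% DMSO for 60-90 min. Emission 570 nm (excitation 680 nm); IC50 by 4-parameter fit. Counter-screen used biotin-AviTag-GST instead of RBD.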
(In general: Alpha assays give light when donor and acceptor beads are brought close together.)

[1] abbreviates: GMPPNP-loaded KRAS G12C, 19-20 hours incubation with compound, read-out: IC50 (Inhibition of KRAS G12C and cRAF Binding).
[2] abbreviates: additional exemplary compounds, KRAS G12C and cRAF binding, read-out: RAF1 RBD IC50.

Where two headings read alike, the source gives them in different places.

IC50 data for 29 molecules are collected here from US20250019387A1 (Frontier Medicines Corporation, priority 0001, published 2025).

Chain of KRAS G12C and cRAF (Ras-binding domain) interaction (P01116 other isoform, or with tags, fused parts or gaps G12C/C51S/C80L/C118S): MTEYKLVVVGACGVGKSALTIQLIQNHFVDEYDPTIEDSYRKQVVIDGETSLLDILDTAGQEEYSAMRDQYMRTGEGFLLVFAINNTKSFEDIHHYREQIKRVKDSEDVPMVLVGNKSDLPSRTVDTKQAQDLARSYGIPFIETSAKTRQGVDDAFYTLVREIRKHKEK

As usually defined, the IC50 is the concentration that gives 50% inhibition. On to `C=CC(=O)N1CC(F)(CN(C)c2nc(OC[C@@]34CCCN3C[C@H](F)C4)nc3c(F)c(-c4cccc5ccc(F)c(Cl)c45)ncc23)C1` [Example 60, 1-(3-(((7-(8-chloro-7-fluoronaphthalen-1-yl)-8-fluoro-2-(((2R,7aS)-2-fluorotetrahydro-1H-pyrrolizin-7a(5H)-yl)methoxy)pyrido[4,3-d]pyrimidin-4-yl)(methyl)amino)methyl)-3-fluoroazetidin-1-yl)prop-2-en-1-one], for which, under setting [1], the IC50 fell in the range of 100 to 500 nM. On to `C=CC(=O)N1CC(CN(C)c2nc(OC[C@]34CCCN3C[C@@H](F)C4)nc3c(F)c(-c4cccc5cccc(Cl)c45)ncc23)C1`, for which, under setting [2], the IC50 fell in the range of 100 to 500 nM. As to `C=CC(=O)N1CC[C@H]2[C@H]1CCN2c1nc(OC[C@@]23CCCN2C[C@H](F)C3)nc2c1CCN(c1cccc3cccc(Cl)c13)C2`, under setting [2], the 50% inhibitory concentration (IC50) is greater than 500 nM. For the molecule `CCc1c(F)ccc2cccc(-c3ncc4c(N(C)CC5CN(C(=O)/C=C/c6cc(C)nc(C)n6)C5)nc(OC[C@@]56CCCN5C[C@H](F)C6)nc4c3F)c12` [Example 283, (E)-3-(2,6-dimethylpyrimidin-4-yl)-1-(3-(((7-(8-ethyl-7-fluoronaphthalen-1-yl)-8-fluoro-2-(((2R,7aS)-2-fluorotetrahydro-1H-pyrrolizin-7a(5H)-yl)methoxy)pyrido[4,3-d]pyrimidin-4-yl)(methyl)amino)methyl)azetidin-1-yl)prop-2-en-1-one], under setting [1], the IC50 lay in the range of 100 to 500 nM. Regarding `CN(c1nc(OCC23CCCN2CCC3)nc2c(F)c(-c3cccc4cccc(Cl)c34)ncc12)[C@@H]1CCN(C(=O)/C=C/c2nc(C(F)(F)F)no2)C1` [Example 100, (R,E)-1-(3-((7-(8-chloronaphthalen-1-yl)-8-fluoro-2-((tetrahydro-1H-pyrrolizin-7a(5H)-yl)methoxy)pyrido[4,3-d]pyrimidin-4-yl)(methyl)amino)pyrrolidin-1-yl)-3-(3-(trifluoromethyl)-1,2,4-oxadiazol-5-yl)prop-2-en-1-one], the 50% inhibitory concentration (IC50) under setting [1] was less than 10 nM. On to `O=C(/C=C/CN1CCOCC1)N1C2CC1CN(c1nc(OC[C@@]34CCCN3C[C@H](F)C4)nc3c(F)c(-c4cccc5cccc(Cl)c45)ncc13)C2`, for which, under setting [2], the half-maximal inhibitory concentration (IC50) is greater than 500 nM. Take `C=CC(=O)C1CN(c2nc(OC[C@@H]3CCCN3C)nc3c2CCN(c2cccc4cccc(Cl)c24)C3)C1` [Example 41, (S)-1-(1-(7-(8-chloronaphthalen-1-yl)-2-((1-methylpyrrolidin-2-yl)methoxy)-5,6,7,8-tetrahydropyrido[3,4-d]pyrimidin-4-yl)azetidin-3-yl)prop-2-en-1-one]: the IC50 under setting [1] was 10 to 100 nM. Consider `C=CC(=O)N1CC[C@H]1CN(C)c1nc(OC[C@@]23CCCN2C[C@H](F)C3)nc2c(F)c(-c3cccc4cccc(Cl)c34)ncc12`, for which, under setting [2], the IC50 is greater than 500 nM.

For `C=CC(=O)N1CC[C@@H](N(C)c2nc(OC[C@@]34CCCN3C[C@H](F)C4)nc3c(F)c(-c4cccc5cc(F)cc(F)c45)ncc23)C1` [Example 268, 1-((R)-3-((7-(6,8-difluoronaphthalen-1-yl)-8-fluoro-2-(((2R,7aS)-2-fluorohexahydro-1H-pyrrolizin-7a-yl)methoxy)pyrido[4,3-d]pyrimidin-4-yl)(methyl)amino)pyrrolidin-1-yl)prop-2-en-1-one], under setting [1], the IC50 fell in the range of 100 to 500 nM.

Regarding `CN(C)C/C=C/C(=O)N1CC[C@@H](N(C)c2nc(OC[C@@]34CCCN3C[C@H](F)C4)nc3c2CCN(c2cccc4ccc(F)c(Cl)c24)C3)C1`, the IC50 under setting [2] fell in the range of 10 to 100 nM. Take `Cc1noc(/C=C/C(=O)N2CC(CN(C)c3nc(OC[C@@]45CCCN4C[C@H](F)C5)nc4c(F)c(-c5cc(O)cc6ccccc56)ncc34)C2)n1` [Example 86, (E)-1-(3-(((8-fluoro-2-(((2R,7aS)-2-fluorotetrahydro-1H-pyrrolizin-7a(5H)-yl)methoxy)-7-(3-hydroxynaphthalen-1-yl)pyrido[4,3-d]pyrimidin-4-yl)(methyl)amino)methyl)azetidin-1-yl)-3-(3-methyl-1,2,4-oxadiazol-5-yl)prop-2-en-1-one]: the IC50 under setting [1] is less than 10 nM. As to `C=CC(=O)CCCN(C)c1nc(OC[C@@H]2CCCN2C)nc2c1CCN(c1cccc3cccc(Cl)c13)C2`, under setting [2], the concentration for half-maximal inhibition (IC50) is less than 10 nM.

On to `CN(c1nc(OC[C@@]23CCCN2C[C@H](F)C3)nc2c(F)c(-c3cccc4cccc(Cl)c34)ncc12)[C@@H]1CCN(C(=O)/C=C/c2ccncn2)C1`, for which the concentration for half-maximal inhibition (IC50) under setting [2] was greater than 500 nM. `C/C=C/C(=O)CCN(C)c1nc(OC[C@@H]2CCCN2C)nc2c1CCN(c1cccc3ccccc13)C2`: the IC50 under setting [2] was greater than 500 nM.

Take `CN(c1nc(OCC23CCCN2CCC3)nc2c(F)c(-c3cccc4cccc(Cl)c34)ncc12)[C@@H]1CCN(C(=O)/C=C/c2cn(C)nn2)C1`: the IC50 under setting [2] is greater than 500 nM. In the case of `C=CC(=O)N1C[C@H](N(C)c2nc(OCC34CCCN3CCC4)nc3c2CCN(c2cccc4cccc(Cl)c24)C3)C[C@@H]1C#N`, under setting [2], the IC50 was 100 to 500 nM. On to `CC(C)c1noc(/C=C/C(=O)N2CC(CN(C)c3nc(OC[C@@]45CCCN4C[C@H](F)C5)nc4c(F)c(-c5cccc6cccc(Cl)c56)ncc34)C2)n1` [Example 106, (E)-1-(3-(((7-(8-chloronaphthalen-1-yl)-8-fluoro-2-(((2R,7aS)-2-fluorotetrahydro-1H-pyrrolizin-7a(5H)-yl)methoxy)pyrido[4,3-d]pyrimidin-4-yl)(methyl)amino)methyl)azetidin-1-yl)-3-(3-isopropyl-1,2,4-oxadiazol-5-yl)prop-2-en-1-one], for which the 50% inhibitory concentration (IC50) under setting [1] lay in the range of 10 to 100 nM. As for `C=CC(=O)N1CC[C@@H](N(C)c2nc(OC[C@]34CCCN3C[C@H](F)C4)nc3c2CCN(c2cccc4cccc(Cl)c24)C3)C1`, the IC50 under setting [2] was greater than 500 nM. Still for that read-out and setting: to `CC(C)c1noc(/C=C/C(=O)N2CCN(c3nc(OCC45CCCN4CCC5)nc4c3CCN(c3cccc5cccc(Cl)c35)C4)CC2)n1` belongs greater than 500 nM; to `CN(c1nc(OCC23CCCN2CCC3)nc2c(F)c(-c3cccc4cccc(Cl)c34)ncc12)[C@@H]1CCN(C(=O)/C=C/c2nnn(C)n2)C1`, greater than 500 nM; to `CC(C)c1noc(/C=C/C(=O)N2CCN(c3nc(OC[C@@]45CCCN4C[C@H](F)C5)nc4c3CCN(c3cccc5cccc(Cl)c35)C4)CC2)n1`, greater than 500 nM. As to `CN(CC1CN(C(=O)/C=C/[C@H]2CCN2C)C1)c1nc(OC[C@@]23CCCN2C[C@H](F)C3)nc2c(F)c(-c3cccc4cccc(Cl)c34)ncc12` [Example 219, (E)-1-(3-(((7-(8-chloronaphthalen-1-yl)-8-fluoro-2-(((2R,7aS)-2-fluorotetrahydro-1H-pyrrolizin-7a(5H)-yl)methoxy)pyrido[4,3-d]pyrimidin-4-yl)(methyl)amino)methyl)azetidin-1-yl)-3-((R)-1-methylazetidin-2-yl)prop-2-en-1-one], under setting [1], the IC50 was in the range of 10 to 100 nM.

On to `COC/C=C/C(=O)N1CCC(N(C)c2nc(OC[C@@H]3CCCN3C)nc3c2CCN(c2cccc4cccc(Cl)c24)C3)C1` (stereo partly drawn) [Example 5, (E)-1-(3-((7-(8-chloronaphthalen-1-yl)-2-(((S)-1-methylpyrrolidin-2-yl)methoxy)-5,6,7,8-tetrahydropyrido[3,4-d]pyrimidin-4-yl)(methyl)amino)pyrrolidin-1-yl)-4-methoxybut-2-en-1-one], for which the half-maximal inhibitory concentration (IC50) under setting [1] is greater than 500 nM. For `CN(C)C(=O)/C=C/C(=O)N1CC(CN(C)c2nc(OCC34CCCN3CCC4)nc3c(F)c(-c4cccc5cccc(Cl)c45)ncc23)C1`, the IC50 under setting [2] was greater than 500 nM. For the molecule `CN(c1nc(OC[C@@]23CCCN2C[C@H](F)C3)nc2c(F)c(-c3cccc4cccc(Cl)c34)ncc12)[C@@H]1CCN(C(=O)/C=C/c2nc(C(C)(C)O)no2)C1` [Example 107, (E)-1-((R)-3-((7-(8-chloronaphthalen-1-yl)-8-fluoro-2-(((2R,7aS)-2-fluorotetrahydro-1H-pyrrolizin-7a(5H)-yl)methoxy)pyrido[4,3-d]pyrimidin-4-yl)(methyl)amino)pyrrolidin-1-yl)-3-(3-(2-hydroxypropan-2-yl)-1,2,4-oxadiazol-5-yl)prop-2-en-1-one], under setting [1], the IC50 was less than 10 nM. Turning to `COC(=O)/C=C/C(=O)N1C[C@H](N(C)c2nc(OCC34CCCN3CCC4)nc3c2CCN(c2cccc4cccc(Cl)c24)C3)C[C@@H]1C` [Example 20, methyl(E)-4-((2S,4R)-4-((7-(8-chloronaphthalen-1-yl)-2-((tetrahydro-1H-pyrrolizin-7a(5H)-yl)methoxy)-5,6,7,8-tetrahydropyrido[3,4-d]pyrimidin-4-yl)(methyl)amino)-2-methylpyrrolidin-1-yl)-4-oxobut-2-enoate], the IC50 under setting [1] lay within 10 to 100 nM. Turning to `Cc1ncc(F)c(/C=C/C(=O)N2CC[C@@H](N(C)c3nc(OC[C@@]45CCCN4C[C@H](F)C5)nc4c(F)c(-c5cccc6cccc(Cl)c56)ncc34)C2)n1` [Example 241, (E)-1-((R)-3-((7-(8-chloronaphthalen-1-yl)-8-fluoro-2-(((2R,7aS)-2-fluorotetrahydro-1H-pyrrolizin-7a(5H)-yl)methoxy)pyrido[4,3-d]pyrimidin-4-yl)(methyl)amino)pyrrolidin-1-yl)-3-(5-fluoro-2-methylpyrimidin-4-yl)prop-2-en-1-one], the IC50 under setting [1] fell in the range of 100 to 500 nM. On the same count and under the same terms, to `CN1CCC[C@H]1COc1nc(N(C)[C@@H]2CCN(C#N)C2)c2cnc(-c3cccc4cccc(Cl)c34)c(F)c2n1` [Example 36, (R)-3-((7-(8-chloronaphthalen-1-yl)-8-fluoro-2-(((S)-1-methylpyrrolidin-2-yl)methoxy)pyrido[4,3-d]pyrimidin-4-yl)(methyl)amino)pyrrolidine-1-carbonitrile] belongs 10 to 100 nM. In the case of `C#Cc1c(F)ccc2cccc(-c3ncc4c(N(C)[C@@H]5CCN(C(=O)/C=C/CN6CC[C@@H](F)C6)C5)nc(OC[C@@]56CCCN5C[C@H](F)C6)nc4c3F)c12` [Example 289, (E)-1-((R)-3-((7-(8-ethynyl-7-fluoronaphthalen-1-yl)-8-fluoro-2-(((2R,7aS)-2-fluorotetrahydro-1H-pyrrolizin-7a(5H)-yl)methoxy)pyrido[4,3-d]pyrimidin-4-yl)(methyl)amino)pyrrolidin-1-yl)-4-((R)-3-fluoropyrrolidin-1-yl)but-2-en-1-one], the IC50 under setting [1] lay in the range of 10 to 100 nM.
